Assay results published in US11998610B2, “Conjugates and methods of using the same” (Flagship Pioneering Innovations V, Inc., priority 2018, dated 2024).

Experiments:
[1] = Stability of conjugates in Simulated Intestinal Fluid (SIF); format: in vitro ADME; conditions: simulated intestinal fluid pH 6.7 with pancreatin, 1 μM, 37° C.
In short: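 Conjugates at 1 μM (from 1 mM DMSO stock) were incubated with agitation at 37° C. in freshly made SIF: FaSSIF powder plus pancreatin in pH 6.7 phosphate buffer. Aliquots taken at T0 and at regular intervals were quenched with 1 volume acetonitrile, and LC/MS gave degradation rates.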

[2] = In vitro Colonic Material Stability Assay; format: in vitro ADME; conditions: for Assay 3 (% Remaining at 24 h): colonic material slurry, anaerobic, 1 or 10 μM; for Selective delivery to the colon (conclusion from Table 2): from SGF, SIF and colonic material stability
In short: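 Compounds were added at 1 or 10 μM final to colonic material slurry (6.7 μL of 15% w/v slurry per 1 mL YCFAC or similar medium). Samples taken at 0–2880 min were acetonitrile-quenched and the remaining compound quantified by LC/MS.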

WT ClbP = experiment: Assay with purified ClbP protein (LCMS); format: biochemical, E. coli; conditions: 20 μM WT ClbP, 100 μM compound, room temperature, 24 h
Protocol: This example is representative of the method described in Example 91 the soluble peptidase domain (amino acids 38 to 375) of ClbP or the catalytically inert mutant S95A was cloned into pET28a using previously defined boundaries as a starting point (Brotherton, J. Am. Chem. Soc., 135:3359-3362, 2013).
WT ClbP or S95A ClbP was isolated as an N-terminally tagged HiS6-SUMO1-fusion protein from […] using E. coli BL21(DE3)RIPL to express the protein. The cells were lysed in 30 mM Tris pH 8.0, 300 mM NaCl, 10% (v/v) glycerol, benzonase (Sigma-Millipore), lysozyme, B-per (ThermoFisher), and Y-per (ThermoFisher). The lysate was clarified via centrifugation (13,000 g, 20 min), and the supernatant was incubated with HiBond Ni-NTA agarose (5 mL). The resin was subsequently washed with wash buffer (30 mM Tris pH 7.5, 250 mM NaCl, 10 mM imidazole, 3% (v/v) glycerol, and 2 mM TCEP). The resin was incubated at 30° C. for 1 h with 1.4 mg ULP1 protease. The resin was then washed with an additional fraction of wash buffer. Centrifuge filtration was used to concentrate the protein, and the concentrated protein was subsequently applied to a 16/600 Superdex 200 size exclusion column with an isocratic elution of 25 mM HEPES, 25 mM Tris pH 7.4, 325 mM NaCl, 10 mM KCl and 3% (v/v) glycerol at a flow rate of […]. The fractions containing the protein were determined by SDS-PAGE, combined, and concentrated by centrifuge filtration. 3 mM TCEP was added to the concentrated protein, which was then aliquoted, flash frozen in liquid N2, and stored at −80° C.
This example is representative of the method described in Example D, ClbP was incubated with test compounds in an in vitro assay. In a typical assay, 0, 1, or 20 μM purified WT or S95A ClbP was incubated with 100 or 500 μM compound in reaction buffer (50 mM Tris-HCl pH 7.5, 37.5 mM NaCl) at room temperature for 24 h. The total volume of this reaction was 150 μL.
After 24 h, 2 volumes of acetonitrile (300 μL) were added to the reaction to quench the solution.
The reaction was centrifuged (4,000 g, 15 min), and then the supernatant was analyzed by LCMS. 5 μL of the supernatant was injected onto an Acquity UPLC BEH C18 1.7 μm 2.1×100 column. Buffer A was 0.1% (v/v) formic acid in water and buffer B was 0.1% (v/v) formic acid in acetonitrile. The flow rate was 0.5 mL/min. The initial % B was 10, which was held for 30 s then ramped up to 90% B over 3 min, held at 90% B for 1 min, ramped down to 10% B over 15 s, and then held at 10% B for 15 s. The UV-Vis spectrum from 210-400 nm was monitored with 3.6 nm resolution. Positive and negative mode ESI were monitored from 100-1000 m/z with a 20 V cone voltage at 5 Hz sampling frequency in centroid collection.
The relative starting material remaining in the WT ClbP reaction was determined by LCMS and then compared to the residual starting material in the no-enzyme and catalytically inert enzyme (S95A ClbP) reactions. In an ideal case, the amount of residual starting material in the WT ClbP reaction was <25% of the amount in the S95A ClbP and no-enzyme conditions. In an acceptable case, the amount of residual starting material in the WT ClbP reaction was 25-75% of the amount in the S95A ClbP and no-enzyme conditions. In a non-preferred case, the amount of residual starting material in the WT ClbP reaction was >75% of the amount in the S95A ClbP and no-enzyme conditions.
Formation of the anticipated product was likewise quantified by LCMS analysis and confirmed by coelution with an external product standard. In an ideal case, the amount of product formed in the WT ClbP reaction corresponded to >75% of the theoretical maximum. In an acceptable case, the amount of product formed in the WT ClbP reaction corresponded to 25-75% of the theoretical maximum. In a non-preferred case, the amount of product formed in the WT ClbP reaction corresponded to <25% of the theoretical maximum.

SMILES	Assay 2 (SIF) (% @ Remaining 4 hours) [1]	Assay 3 (% Remaining at 24 h) [2]	Selective delivery to the colon (conclusion from Table 2) [2]	Status (compound remaining in WT ClbP reaction relative to no-enzyme control) (WT ClbP)
CCCCCCCCCCCCCC(=O)N[C@H](CC(N)=O)C(=O)N[C@@H](C)CCC(=O)OC [Example 21, Methyl (S)-4-((R)-4-amino-4-oxo-2-tetradecanamidobutanamido)pentanoate]	C (>75% of the tested compound remaining)	B (25-75% of the tested compound remaining)	can be selectively delivered to the colon	+ (between 25-75% compound remaining in the 20 μM WT ClbP reaction relative to the no-enzyme control)
CCCCCCCCCCCCCC(=O)N[C@H](CC(N)=O)C(=O)Nc1ccc(COC)cc1 [Example 22, (R)—N1-(4-(methoxymethyl)phenyl)-2-tetradecanamidosuccinamide]	C (>75% of the tested compound remaining)	A (<25% of the tested compound remaining)	can be selectively delivered to the colon	+ (between 25-75% compound remaining in the 20 μM WT ClbP reaction relative to the no-enzyme control)
